# In article PMC4254195 (European journal of medicinal chemistry, 2014):
# Target: T1, PTP1B (Homo sapiens, UniProt P18031)
# T1 sequence (P18031 1-435): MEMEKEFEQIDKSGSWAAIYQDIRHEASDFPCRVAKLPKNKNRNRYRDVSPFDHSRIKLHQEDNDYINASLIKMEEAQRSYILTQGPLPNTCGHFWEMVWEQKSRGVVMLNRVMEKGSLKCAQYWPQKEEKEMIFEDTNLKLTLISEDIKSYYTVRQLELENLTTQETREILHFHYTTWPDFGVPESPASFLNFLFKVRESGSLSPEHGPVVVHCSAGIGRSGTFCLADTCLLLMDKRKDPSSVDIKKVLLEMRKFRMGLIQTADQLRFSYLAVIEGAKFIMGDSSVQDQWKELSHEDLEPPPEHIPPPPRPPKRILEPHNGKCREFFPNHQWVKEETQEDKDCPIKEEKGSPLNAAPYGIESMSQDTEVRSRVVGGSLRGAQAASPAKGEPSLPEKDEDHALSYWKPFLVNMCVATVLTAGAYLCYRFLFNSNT
# Experiment: competition with BiPhYn-1 labelling of PTP1B in cells
# Assay type: cell-based
smiles,measurement,value
"C=CS(=O)(=O)c1ccccc1 [PVSF, phenyl vinyl sulfone]",competition with BiPhYn-1 labelling of PTP1B in cells,exhibited loss of detection of oxidized PTP1B with BiPhYn-1 in the presence of increasing concentrations of PVSF
